Experiments:
human A1 receptor = target: T1, human A1 receptor (Homo sapiens, UniProt P30542); experiment: Adenosine antagonistic activity, radioligand binding with [3H]DPCPX; settings: 4.5 nM
T1 sequence (P30542 1-326): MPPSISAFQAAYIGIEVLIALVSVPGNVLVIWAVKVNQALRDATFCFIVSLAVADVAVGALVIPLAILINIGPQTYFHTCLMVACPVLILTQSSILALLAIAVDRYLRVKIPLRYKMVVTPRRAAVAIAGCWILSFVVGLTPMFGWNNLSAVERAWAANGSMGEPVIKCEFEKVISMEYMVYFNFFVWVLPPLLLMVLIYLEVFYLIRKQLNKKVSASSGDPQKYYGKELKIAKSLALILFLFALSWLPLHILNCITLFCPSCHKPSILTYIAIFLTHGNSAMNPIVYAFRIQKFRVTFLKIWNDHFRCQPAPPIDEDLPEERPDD
Method: (§1) Test 1: Adenosine Antagonistic Activity
(§2) The adenosine antagonistic activity [Ki(nM)] of the test compound was examined by radioligand binding techniques using 8-cyclopentyl-1,3-dipropylxanthine, [dipropyl-2,3^−3H(N)] ([3H]DPCPX, 4.5 nM) for human A1 receptor and [3H]CGS 21680 (20 nM) for human A2a receptor.

human A2a receptor = human A2a receptor (Homo sapiens, UniProt P29274); experiment: Adenosine antagonistic activity, radioligand binding with [3H]CGS 21680; settings: [3H]CGS 21680, 20 nM
Method: as §1, §2

ddY mice = experiment: Anticatalepsy activity in mouse (haloperidol-induced catalepsy); assay type: in vivo; settings: 3.2 mg/kg orally, ddY mice (n=7); haloperidol 0.32 mg/kg i.p. 30 min after compound; measured 30 min after injection, bar test up to 30 sec
Method: Test 2: Anticatalepsy Activity in Mouse
The test compound (3.2 mg/kg) was administered orally with ddY mice(n=7). Then, haloperidol (0.32 mg/kg) was injected intraperitoneally 30 min. after the administration of the compound. Thirty minutes after the injection, the cataleptic responses of mice were measured. The forelimbs of each mouse were placed on a 3 cm high, 3 mm wide horizontal bar, and the duration of cataleptic posture was measured for up to 30 sec.

human A2a receptor, sequence (P29274 whole entry): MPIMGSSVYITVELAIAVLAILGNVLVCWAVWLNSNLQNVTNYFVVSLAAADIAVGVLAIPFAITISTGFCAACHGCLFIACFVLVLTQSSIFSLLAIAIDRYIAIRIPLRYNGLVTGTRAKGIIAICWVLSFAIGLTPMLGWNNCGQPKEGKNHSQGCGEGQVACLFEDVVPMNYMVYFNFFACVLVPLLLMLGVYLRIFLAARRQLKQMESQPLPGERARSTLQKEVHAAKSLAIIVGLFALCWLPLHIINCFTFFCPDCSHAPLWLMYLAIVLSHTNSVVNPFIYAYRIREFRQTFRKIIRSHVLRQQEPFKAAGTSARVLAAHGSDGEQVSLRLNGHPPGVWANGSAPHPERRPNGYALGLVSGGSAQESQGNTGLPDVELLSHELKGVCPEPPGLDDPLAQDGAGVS

Row | Ki (human A1 receptor) [nM] | Ki (human A2a receptor) [nM] | melting point [°C] | SMILES | Manifestation rate of catalepsy (number of mouse) (ddY mice)
1 | 0.12 | 1.63 | 234 to 236 | CNc1nc(-c2ccccc2)c(-c2ccc(=O)n(C(C)C)n2)s1 [Example 15, 2-Isopropyl-6-[2-(methylamino)-4-phenyl-1,3-thiazol-5-yl]-3(2H)-pyridazinone] | 0/7
2 | 0.45 | 1.23 | 228 to 230 | CC(C)n1nc(-c2sc(NC(=O)c3ccccc3)nc2-c2ccc(F)cc2)ccc1=O [Example 78, N-[4-(4-Fluorophenyl)-5-(1-isopropyl-6-oxo-1,6-dihydro-3-pyridazinyl)-1,3-thiazol-2-yl]-benzamide] | 0/7
3 | 0.28 | 1.22 | 188 to 190 | COc1ccc(CC(=O)Nc2nc(-c3ccccc3)c(-c3ccc(=O)n(C(C)C)n3)s2)cc1 [Example 9, N-[5-(1-Isopropyl-6-oxo-1,6-dihydro-3-pyridazinyl)-4-phenyl-1,3-thiazol-2-yl]-2-(4-methoxyphenyl)acetamide] | 0/7
4 | 0.38 | 3.08 | 242 to 243 | Cc1cccc(NC(=O)Nc2nc(-c3ccccc3)c(-c3ccc(=O)n(C(C)C)n3)s2)c1 [Example 10, N-[5-(1-Isopropyl-6-oxo-1,6-dihydro-3-pyridazinyl)-4-phenyl-1,3-thiazol-2-yl]-N′-(3-methylphenyl)urea] | –
5 | 1.14 | 1.52 | 172 to 174 | CCNC(=O)c1nc(-c2ccccc2)c(-c2ccc(=O)n(C(C)C)n2)s1 [Example 214, N-ethyl-5-(1-isopropyl-6-oxo-1,6-dihydro-3-pyridazinyl)-4-phenyl-1,3-thiazole-2-carboxamide] | 0/7
6 | 0.61 | 1.22 | 187 to 188 | CC(C)n1nc(-c2sc(NC(=O)CNCc3ccncc3)nc2-c2ccccc2)ccc1=O [Example 100, N-[5-(1-isopropyl-6-oxo-1,6-dihydro-3-pyridazinyl)-4-phenyl-1,3-thiazol-2-yl]-2-[(4-pyridinylmethyl)amino]acetamide] | 0/7
7 | 0.27 | 1.46 | 129 to 132 | CCCCCC(=O)Nc1nc(-c2ccccc2)c(-c2ccc(=O)n(C(C)C)n2)s1 [Example 3, N-[5-(1-Isopropyl-6-oxo-1,6-dihydro-3-pyridazinyl)-4-phenyl-1,3-thiazol-2-yl]hexanamide] | 0/7
8 | 1.03 | 1.14 | 192 to 193 | CC(C)n1nc(-c2sc(C(=O)NCc3ccncc3)nc2-c2ccccc2)ccc1=O [Example 233, 5-(1-Isopropyl-6-oxo-1,6-dihydro-3-pyridazinyl)-4-phenyl-N-(4-pyridinylmethyl)-1,3-thiazole-2-carboxamide] | 0/7
9 | – | – | 197 to 198 | CC(C)n1nc(-c2sc(NC(=O)CCN3CCOCC3)nc2-c2ccccc2)ccc1=O [Example 123, N-[5-(1-Isopropyl-6-oxo-1,6-dihydro-3-pyridazinyl)-4-phenyl-1,3-thiazol-2-yl]-3-(4-morpholinyl)propanamide] | –

From patent publication US20050004134A1, “Thiazole derivative and pharmaceutical use thereof” (priority 2001, published 2005)
